Assay results published in ChEMBL document CHEMBL5465560, “Selectivity Literature for EUbOPEN Chemogenomic Library” (2024).

Legend:
[1] = target: Ribosomal protein S6 kinase alpha-3 (Homo sapiens, UniProt P51812); test: Selectivity interaction (KinomeScan (DiscoverX)) EUB0000595a RPS6KA3; conditions: at 10 µM
[2] = target: Activin receptor type-1-like (Homo sapiens) (UniProt P37023); test: Selectivity interaction (KinomeScan (DiscoverX)) EUB0000045b ACVRL1
[3] = target: T1, Mitogen-activated protein kinase kinase kinase 5 (Homo sapiens) (UniProt Q99683); test: Selectivity interaction (LanthaScreen Eu Kinase Binding Assay) EUB0001632a MAP3K5; conditions: at 10 µM
T1 sequence (whole entry): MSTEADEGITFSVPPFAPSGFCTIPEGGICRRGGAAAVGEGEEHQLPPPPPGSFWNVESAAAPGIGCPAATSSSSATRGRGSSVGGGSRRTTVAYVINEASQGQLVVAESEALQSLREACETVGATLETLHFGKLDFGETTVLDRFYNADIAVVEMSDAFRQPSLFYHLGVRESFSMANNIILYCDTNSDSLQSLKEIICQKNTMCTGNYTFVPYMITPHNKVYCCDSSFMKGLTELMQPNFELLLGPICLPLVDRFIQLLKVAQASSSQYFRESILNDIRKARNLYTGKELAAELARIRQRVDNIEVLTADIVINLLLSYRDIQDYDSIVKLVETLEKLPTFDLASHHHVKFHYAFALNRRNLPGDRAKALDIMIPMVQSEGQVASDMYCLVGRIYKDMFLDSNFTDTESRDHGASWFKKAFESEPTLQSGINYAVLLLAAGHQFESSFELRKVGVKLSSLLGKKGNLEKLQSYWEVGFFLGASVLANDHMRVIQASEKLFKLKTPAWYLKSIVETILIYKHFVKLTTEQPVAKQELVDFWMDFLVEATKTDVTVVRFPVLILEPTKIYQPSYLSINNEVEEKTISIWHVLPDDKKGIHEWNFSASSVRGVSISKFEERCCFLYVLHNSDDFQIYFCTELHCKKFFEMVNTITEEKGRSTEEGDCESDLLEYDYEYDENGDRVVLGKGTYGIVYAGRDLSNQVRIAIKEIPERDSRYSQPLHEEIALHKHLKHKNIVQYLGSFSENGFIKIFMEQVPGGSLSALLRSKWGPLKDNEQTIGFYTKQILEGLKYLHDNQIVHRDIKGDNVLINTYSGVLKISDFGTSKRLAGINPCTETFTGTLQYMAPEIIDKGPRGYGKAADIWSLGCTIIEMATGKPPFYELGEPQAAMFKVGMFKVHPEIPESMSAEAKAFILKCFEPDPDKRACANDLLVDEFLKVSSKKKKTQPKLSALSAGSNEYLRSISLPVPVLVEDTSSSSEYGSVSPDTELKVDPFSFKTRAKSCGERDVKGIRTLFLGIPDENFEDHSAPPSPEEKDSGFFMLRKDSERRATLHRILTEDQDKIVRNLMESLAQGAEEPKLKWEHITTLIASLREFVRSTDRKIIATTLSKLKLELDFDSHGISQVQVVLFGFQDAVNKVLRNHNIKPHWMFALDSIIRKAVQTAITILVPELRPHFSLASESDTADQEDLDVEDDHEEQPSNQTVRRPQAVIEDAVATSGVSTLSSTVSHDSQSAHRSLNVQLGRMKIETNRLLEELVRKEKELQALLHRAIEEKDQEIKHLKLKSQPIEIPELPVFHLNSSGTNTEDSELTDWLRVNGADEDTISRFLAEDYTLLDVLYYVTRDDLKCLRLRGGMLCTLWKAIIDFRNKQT

[4] = target: Serine/threonine-protein kinase PAK 4 (Homo sapiens, UniProt O96013); test: Selectivity interaction (Kinase panel (Z-LYTE Assay)) EUB0001632a PAK4; conditions: at 10 µM
[5] = target: T2, Activin receptor type-1B (Homo sapiens) (UniProt P36896); test: Selectivity interaction (ProQinase) EUB0000171b ACVR1B
T2 sequence (whole entry): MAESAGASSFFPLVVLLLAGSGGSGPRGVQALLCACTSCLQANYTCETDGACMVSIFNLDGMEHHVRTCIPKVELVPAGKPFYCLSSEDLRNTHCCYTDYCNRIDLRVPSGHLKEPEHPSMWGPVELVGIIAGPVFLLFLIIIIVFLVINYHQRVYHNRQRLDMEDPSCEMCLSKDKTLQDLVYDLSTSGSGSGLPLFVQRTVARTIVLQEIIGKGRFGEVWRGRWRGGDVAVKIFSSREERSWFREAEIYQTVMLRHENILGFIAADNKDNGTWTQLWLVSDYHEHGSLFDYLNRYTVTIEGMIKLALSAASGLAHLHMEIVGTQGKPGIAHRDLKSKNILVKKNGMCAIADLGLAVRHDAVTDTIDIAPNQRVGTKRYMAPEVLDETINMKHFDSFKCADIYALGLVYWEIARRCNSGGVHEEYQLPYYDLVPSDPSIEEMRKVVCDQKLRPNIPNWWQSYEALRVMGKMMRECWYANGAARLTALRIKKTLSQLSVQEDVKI

[6] = target: Mitogen-activated protein kinase 11 (Homo sapiens) (UniProt Q15759); test: Selectivity interaction (ProQinase) EUB0000171b MAPK11
[7] = target: Tyrosine-protein kinase SYK (Homo sapiens, UniProt P43405); test: Selectivity interaction (ActivX KiNativ screen (ex vivo kinase selectivity in human PBMCs)) EUB0001619a SYK; assay type: cell-based; conditions: PBMC, at 1 µM
[8] = target: 5'-AMP-activated protein kinase catalytic subunit alpha-1 (Homo sapiens, UniProt Q13131); test: Selectivity interaction (ActivX KiNativ screen (kinase selectivity in THP-1 cell lysates)) EUB0000639a PRKAA1; assay type: subcellular; conditions: lysate, at 0.04 µM
[9] = target: Ribosomal protein S6 kinase beta-1 (Homo sapiens, UniProt P23443); test: Selectivity interaction (ActivX KiNativ screen (kinase selectivity in THP-1 cell lysates)) EUB0000639a RPS6KB1; assay type: subcellular; conditions: lysate
[10] = target: Serine/threonine-protein kinase PLK2 (Homo sapiens, UniProt Q9NYY3); test: Selectivity interaction (KinomeScan (DiscoverX)) EUB0000655a PLK2; conditions: at 10 µM
[11] = target: Ephrin type-A receptor 5 (Homo sapiens) (UniProt P54756); test: Selectivity interaction (KinomeScan (DiscoverX)) EUB0000655a EPHA5; conditions: at 10 µM
Chain of Ephrin type-A receptor 5 (Homo sapiens) (P54756 whole entry): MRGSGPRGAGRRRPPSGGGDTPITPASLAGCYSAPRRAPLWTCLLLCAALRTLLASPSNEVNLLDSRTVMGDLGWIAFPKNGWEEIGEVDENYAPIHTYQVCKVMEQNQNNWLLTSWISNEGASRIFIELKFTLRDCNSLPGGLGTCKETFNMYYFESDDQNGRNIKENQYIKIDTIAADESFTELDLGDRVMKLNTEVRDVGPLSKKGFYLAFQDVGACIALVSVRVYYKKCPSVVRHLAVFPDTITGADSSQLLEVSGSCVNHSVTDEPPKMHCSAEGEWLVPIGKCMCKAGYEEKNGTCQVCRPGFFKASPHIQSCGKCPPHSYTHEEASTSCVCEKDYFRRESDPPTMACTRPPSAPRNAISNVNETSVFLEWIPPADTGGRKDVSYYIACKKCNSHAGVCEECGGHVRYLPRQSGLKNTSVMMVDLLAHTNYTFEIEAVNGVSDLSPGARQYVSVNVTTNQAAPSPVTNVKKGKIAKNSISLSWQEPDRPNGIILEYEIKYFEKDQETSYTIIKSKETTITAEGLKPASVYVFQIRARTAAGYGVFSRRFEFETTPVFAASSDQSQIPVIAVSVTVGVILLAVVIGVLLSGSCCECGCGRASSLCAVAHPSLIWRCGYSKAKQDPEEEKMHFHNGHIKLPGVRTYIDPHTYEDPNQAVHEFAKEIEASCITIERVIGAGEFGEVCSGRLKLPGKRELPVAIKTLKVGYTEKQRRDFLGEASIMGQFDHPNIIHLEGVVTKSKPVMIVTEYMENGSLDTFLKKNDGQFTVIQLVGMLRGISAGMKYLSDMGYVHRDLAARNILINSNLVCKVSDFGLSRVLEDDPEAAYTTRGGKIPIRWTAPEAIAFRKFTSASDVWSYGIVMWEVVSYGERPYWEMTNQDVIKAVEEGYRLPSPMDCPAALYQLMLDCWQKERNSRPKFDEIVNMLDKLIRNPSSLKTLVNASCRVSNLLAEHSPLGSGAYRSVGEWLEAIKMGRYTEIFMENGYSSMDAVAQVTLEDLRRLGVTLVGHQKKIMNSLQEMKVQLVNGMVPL

Chain of Ribosomal protein S6 kinase beta-1 (P23443 whole entry, looked up): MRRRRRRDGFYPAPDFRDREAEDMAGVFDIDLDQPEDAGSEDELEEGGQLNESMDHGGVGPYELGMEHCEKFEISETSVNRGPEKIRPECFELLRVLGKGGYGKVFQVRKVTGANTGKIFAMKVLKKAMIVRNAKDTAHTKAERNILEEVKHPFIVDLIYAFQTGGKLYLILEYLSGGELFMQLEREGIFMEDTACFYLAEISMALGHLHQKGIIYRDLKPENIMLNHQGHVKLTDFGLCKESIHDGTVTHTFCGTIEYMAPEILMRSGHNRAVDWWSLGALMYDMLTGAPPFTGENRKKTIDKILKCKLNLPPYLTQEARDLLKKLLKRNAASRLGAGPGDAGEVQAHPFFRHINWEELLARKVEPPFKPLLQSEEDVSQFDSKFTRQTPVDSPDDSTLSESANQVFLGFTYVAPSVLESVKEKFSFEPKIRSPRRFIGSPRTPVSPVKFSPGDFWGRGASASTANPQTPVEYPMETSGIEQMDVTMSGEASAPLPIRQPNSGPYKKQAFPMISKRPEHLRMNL
Chain of Mitogen-activated protein kinase 11 (Homo sapiens) (Q15759 whole entry): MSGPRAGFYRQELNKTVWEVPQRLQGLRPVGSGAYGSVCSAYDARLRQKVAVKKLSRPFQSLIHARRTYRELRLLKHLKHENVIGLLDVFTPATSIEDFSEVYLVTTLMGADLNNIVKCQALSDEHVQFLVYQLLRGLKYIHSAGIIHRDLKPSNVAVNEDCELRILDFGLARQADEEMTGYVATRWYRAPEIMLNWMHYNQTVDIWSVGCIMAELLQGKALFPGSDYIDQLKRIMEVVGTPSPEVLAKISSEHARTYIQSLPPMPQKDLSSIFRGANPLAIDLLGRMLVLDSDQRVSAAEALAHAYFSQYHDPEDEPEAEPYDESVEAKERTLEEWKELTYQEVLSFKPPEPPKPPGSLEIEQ
Chain of Activin receptor type-1-like (Homo sapiens) (P37023 whole entry): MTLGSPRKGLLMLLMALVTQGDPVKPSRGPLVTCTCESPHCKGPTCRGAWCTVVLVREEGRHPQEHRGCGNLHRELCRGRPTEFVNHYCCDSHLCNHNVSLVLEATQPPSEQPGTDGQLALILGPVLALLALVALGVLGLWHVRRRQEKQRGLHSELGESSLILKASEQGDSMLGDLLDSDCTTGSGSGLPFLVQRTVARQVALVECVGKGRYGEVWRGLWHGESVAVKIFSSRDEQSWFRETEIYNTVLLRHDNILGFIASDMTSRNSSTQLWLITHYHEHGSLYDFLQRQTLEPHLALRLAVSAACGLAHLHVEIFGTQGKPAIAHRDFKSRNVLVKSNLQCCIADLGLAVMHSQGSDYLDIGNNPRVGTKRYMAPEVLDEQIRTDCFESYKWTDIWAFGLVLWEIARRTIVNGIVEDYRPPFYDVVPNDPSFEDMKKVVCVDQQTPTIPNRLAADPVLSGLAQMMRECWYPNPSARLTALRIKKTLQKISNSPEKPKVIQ
Chain of Serine/threonine-protein kinase PAK 4 (O96013 whole entry, looked up): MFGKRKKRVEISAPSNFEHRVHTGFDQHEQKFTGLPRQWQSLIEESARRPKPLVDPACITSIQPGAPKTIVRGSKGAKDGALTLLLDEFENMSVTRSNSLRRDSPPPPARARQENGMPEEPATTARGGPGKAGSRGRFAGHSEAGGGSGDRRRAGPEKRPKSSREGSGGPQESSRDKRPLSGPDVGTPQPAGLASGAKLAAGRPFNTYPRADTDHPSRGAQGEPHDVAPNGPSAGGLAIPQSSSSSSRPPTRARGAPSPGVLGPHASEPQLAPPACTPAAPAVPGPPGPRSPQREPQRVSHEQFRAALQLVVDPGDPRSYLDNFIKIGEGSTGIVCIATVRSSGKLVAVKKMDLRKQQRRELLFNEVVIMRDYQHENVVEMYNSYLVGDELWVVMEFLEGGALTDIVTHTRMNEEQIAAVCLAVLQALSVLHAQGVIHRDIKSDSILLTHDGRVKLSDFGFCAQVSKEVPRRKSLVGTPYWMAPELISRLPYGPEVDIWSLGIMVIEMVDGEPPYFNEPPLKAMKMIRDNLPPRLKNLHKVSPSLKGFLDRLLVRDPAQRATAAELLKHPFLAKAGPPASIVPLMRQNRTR
Chain of 5'-AMP-activated protein kinase catalytic subunit alpha-1 (Q13131 whole entry, looked up): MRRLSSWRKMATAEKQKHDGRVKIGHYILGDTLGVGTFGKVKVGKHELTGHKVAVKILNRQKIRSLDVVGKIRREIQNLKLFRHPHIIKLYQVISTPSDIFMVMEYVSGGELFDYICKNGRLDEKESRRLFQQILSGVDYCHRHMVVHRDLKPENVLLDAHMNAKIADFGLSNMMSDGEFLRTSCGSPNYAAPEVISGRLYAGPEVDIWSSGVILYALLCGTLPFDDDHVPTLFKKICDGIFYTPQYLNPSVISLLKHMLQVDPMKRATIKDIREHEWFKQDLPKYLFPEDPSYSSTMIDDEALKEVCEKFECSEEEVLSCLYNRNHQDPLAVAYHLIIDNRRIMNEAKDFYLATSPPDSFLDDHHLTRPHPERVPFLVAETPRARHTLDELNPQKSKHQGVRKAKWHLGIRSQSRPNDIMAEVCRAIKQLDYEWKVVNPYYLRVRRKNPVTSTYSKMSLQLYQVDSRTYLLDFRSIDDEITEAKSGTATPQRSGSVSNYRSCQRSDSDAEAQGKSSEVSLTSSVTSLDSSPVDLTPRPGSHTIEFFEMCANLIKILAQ
Chain of Serine/threonine-protein kinase PLK2 (Q9NYY3 whole entry, looked up): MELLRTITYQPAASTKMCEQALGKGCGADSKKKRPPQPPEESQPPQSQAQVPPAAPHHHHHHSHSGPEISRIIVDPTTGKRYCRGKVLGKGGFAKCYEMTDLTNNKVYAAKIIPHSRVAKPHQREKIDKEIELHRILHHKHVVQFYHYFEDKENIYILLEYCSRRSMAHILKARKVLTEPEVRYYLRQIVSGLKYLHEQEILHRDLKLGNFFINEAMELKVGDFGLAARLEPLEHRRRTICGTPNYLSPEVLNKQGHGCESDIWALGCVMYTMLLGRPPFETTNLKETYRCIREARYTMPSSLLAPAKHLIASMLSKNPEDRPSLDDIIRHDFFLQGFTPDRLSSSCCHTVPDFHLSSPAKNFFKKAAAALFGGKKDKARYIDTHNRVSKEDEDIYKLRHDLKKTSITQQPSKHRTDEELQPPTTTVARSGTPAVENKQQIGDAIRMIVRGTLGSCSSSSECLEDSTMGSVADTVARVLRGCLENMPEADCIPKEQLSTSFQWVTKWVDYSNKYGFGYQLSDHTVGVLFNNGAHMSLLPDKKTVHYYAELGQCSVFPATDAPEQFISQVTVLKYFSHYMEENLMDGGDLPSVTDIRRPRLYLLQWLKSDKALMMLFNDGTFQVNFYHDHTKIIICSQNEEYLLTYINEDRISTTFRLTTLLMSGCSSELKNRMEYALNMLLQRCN
Chain of Ribosomal protein S6 kinase alpha-3 (P51812 whole entry): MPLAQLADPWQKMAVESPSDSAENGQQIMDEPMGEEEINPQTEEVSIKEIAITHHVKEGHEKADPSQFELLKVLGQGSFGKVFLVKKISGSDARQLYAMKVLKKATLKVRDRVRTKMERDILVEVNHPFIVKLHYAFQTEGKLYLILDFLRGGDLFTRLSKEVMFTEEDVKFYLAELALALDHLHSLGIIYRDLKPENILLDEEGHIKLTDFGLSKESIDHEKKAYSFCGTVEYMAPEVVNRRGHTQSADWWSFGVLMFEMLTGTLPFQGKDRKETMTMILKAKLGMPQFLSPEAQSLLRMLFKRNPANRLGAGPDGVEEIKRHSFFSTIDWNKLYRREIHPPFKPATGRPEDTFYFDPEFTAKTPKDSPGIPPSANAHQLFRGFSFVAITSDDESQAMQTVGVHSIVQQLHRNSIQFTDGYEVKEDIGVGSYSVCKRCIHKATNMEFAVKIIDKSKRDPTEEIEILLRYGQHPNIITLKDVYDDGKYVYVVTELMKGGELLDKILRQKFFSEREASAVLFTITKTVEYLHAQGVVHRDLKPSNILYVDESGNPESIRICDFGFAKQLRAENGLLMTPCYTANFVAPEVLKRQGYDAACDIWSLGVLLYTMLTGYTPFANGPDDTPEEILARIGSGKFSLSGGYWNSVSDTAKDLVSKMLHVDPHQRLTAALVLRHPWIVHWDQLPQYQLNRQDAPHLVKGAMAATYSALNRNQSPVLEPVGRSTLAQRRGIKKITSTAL

COCC(=O)NC/C=C/c1ccc2ncnc(Nc3ccc(Oc4ccc(C)nc4)c(C)c3)c2c1 [CP-724714]
% of control [1]: 92%

C=CC(=O)Nc1cc(-n2c(=O)ccc3cnc4ccc(-c5ccc(NS(C)(=O)=O)cc5)cc4c32)ccc1C
% of control ([2]; at 1 µM): 100%
% of control ([2]; at 10 µM): 75%

Cn1cc(-n2cnc3c(NCc4nc5cc(Cl)c(Cl)cc5[nH]4)nc(N4CCOCC4)nc32)cn1
% of inhibition [3]: -14.2%
% of control [4]: 7.15%

C=CC(=O)Nc1cccc(C(=O)Nc2ccc(Nc3cc(-c4[nH]c(SC)nc4C)ccn3)cc2)c1
% of control ([5]; at 1 µM): 94%
% of control ([5]; at 5 µM): 94%
% of control ([6]; at 1 µM): 93%
% of control ([6]; at 5 µM): 75%

N#Cc1cccc(-c2c[nH]c3ncnc(N4CCOCC4)c23)c1
% of inhibition [7]: 6%

CC[C@@H]1[C@H](F)C(=O)N[C@@H]1COc1nccc2cc(C(N)=O)c(OC)cc12 [ZIMLOVISERTIB]
% of inhibition [8]: -11.5%
% of inhibition ([9]; at 0.01 µM): 17.1%
% of inhibition ([9]; at 0.04 µM): -0.8%
% of inhibition ([9]; at 0.2 µM): -21.6%
% of inhibition ([9]; at 1 µM): -2.2%
% of inhibition ([9]; at 5 µM): -3%

CN(C)CCOc1ccc(-c2nc(-c3ccncc3)c(-c3ccc4c(c3)CC/C4=N\O)[nH]2)cc1
% of control [10]: 92%
% of control [11]: 99%
